Numbered stars: 1 amine (or outer) side, 2 acyl side, 3 side chain; on linkers, the order of the positions; unused ones are H or OH. Bridge positions count the residues as written; N and C are the ends. Square brackets hold non-standard residues; d marks the D form. Peptide text beside a SMILES is read from it. X4 = O=C([C@H](CCCCNCc1ccccc1)N[*:1])[*:2]; sY = N[C@@H](Cc1ccc(OS(=O)(=O)O)cc1)C(=O)O; X3 = O=C([C@H](CCNCc1ccccc1)N[*:1])[*:2]; X2 = O=C([C@H](CNCc1ccccc1)N[*:1])[*:2]; Dap = NC[C@H](N)C(=O)O; βAla = NCCC(=O)O
Target: T1, Cholecystokinin receptor type A (Homo sapiens, UniProt P32238)
T1 sequence (P32238 whole entry): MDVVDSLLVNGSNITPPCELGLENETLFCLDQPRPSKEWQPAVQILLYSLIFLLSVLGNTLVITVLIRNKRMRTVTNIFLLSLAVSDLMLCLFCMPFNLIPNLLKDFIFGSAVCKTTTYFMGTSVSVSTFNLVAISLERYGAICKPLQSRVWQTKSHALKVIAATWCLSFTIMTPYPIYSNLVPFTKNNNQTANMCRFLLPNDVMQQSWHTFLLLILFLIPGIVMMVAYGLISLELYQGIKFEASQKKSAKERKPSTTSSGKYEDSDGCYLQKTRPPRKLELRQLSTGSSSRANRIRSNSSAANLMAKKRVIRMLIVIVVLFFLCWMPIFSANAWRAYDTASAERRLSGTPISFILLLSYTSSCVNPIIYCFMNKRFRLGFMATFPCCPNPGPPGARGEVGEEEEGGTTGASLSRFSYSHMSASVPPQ
Experiment: Displacement of [111In]DTPA-Glu-Gly-[Tyr27(SO3H)]-CCK8 from human CCK1 receptor expressed in A431 cells
Format: cell-based, A-431

Row | SMILES | IC50 [µM] | IC50 (a-431) [µM]
1 | CSCC[C@@H]1NC(=O)[C@H](Cc2c[nH]c3ccccc23)NC(=O)[C@@H](NC(=O)[C@H](CCSC)NC(=O)[C@H](Cc2ccc(OS(=O)(=O)O)cc2)NC(=O)[C@@H](N)CC(=O)O)CNC(=O)CNC(=O)[C@H](C)NC(=O)[C@H](CC(=O)O)NC1=O (H-D[sY]M[Dap]WMDAG; lactam 4-C) | 7.2 | 
2 | CSCC[C@@H]1NC(=O)[C@H](Cc2c[nH]c3ccccc23)NC(=O)[C@@H](NC(=O)[C@H](CCSC)NC(=O)[C@H](Cc2ccc(OS(=O)(=O)O)cc2)NC(=O)[C@@H](N)CC(=O)O)CNC(=O)[C@H](CCCCN)NC(=O)[C@H](Cc2ccccc2)NC(=O)[C@H](CC(=O)O)NC1=O (H-D[sY]M[Dap]WMDFK; lactam 4-C) | 15 | 
3 | CSCC[C@@H]1NC(=O)[C@H](Cc2c[nH]c3ccccc23)NC(=O)[C@@H](NC(=O)[C@H](CCSC)NC(=O)[C@H](Cc2ccc(OS(=O)(=O)O)cc2)NC(=O)[C@@H](N)CC(=O)O)CNC(=O)CNC(=O)[C@H](Cc2ccccc2)NC(=O)[C@H](CC(=O)O)NC1=O (H-D[sY]M[Dap]WMDFG; lactam 4-C) | 26.3 | 
4 | CSCC[C@@H]1NC(=O)[C@H](Cc2c[nH]c3ccccc23)NC(=O)[C@@H](NC(=O)[C@H](CCSC)NC(=O)[C@H](Cc2ccc(OS(=O)(=O)O)cc2)NC(=O)[C@@H](N)CC(=O)O)CNC(=O)CNC(=O)[C@H](CCCCNCc2ccccc2)NC(=O)[C@H](CC(=O)O)NC1=O (H-D[sY]M[Dap]WMD[X4]G; lactam 4-C) | 24.7 | 
5 | CSCC[C@@H]1NC(=O)[C@H](Cc2c[nH]c3ccccc23)NC(=O)[C@@H](NC(=O)[C@H](CCSC)NC(=O)[C@H](Cc2ccc(OS(=O)(=O)O)cc2)NC(=O)[C@@H](N)CC(=O)O)CNC(=O)[C@H](C)NC(=O)[C@H](Cc2ccccc2)NC(=O)[C@H](CC(=O)O)NC1=O (H-D[sY]M[Dap]WMDFA; lactam 4-C) | > 1000 | 
6 | CSCC[C@H](NC(=O)[C@H](Cc1ccc(O)cc1)NC(=O)[C@H](CC(=O)O)NC(=O)CNC(=O)CC[C@@H](C(=O)O)N(CCN(CC(=O)O)CC(=O)O)CCN(CC(=O)O)CC(=O)O)C(=O)NCC(=O)N[C@@H](Cc1c[nH]c2ccccc12)C(=O)N[C@@H](CCSC)C(=O)N[C@@H](CC(=O)O)C(=O)N[C@@H](Cc1ccccc1)C(N)=O |  | 0.032

More lines, in order of falling IC50, values ahead:

Row | IC50 [µM] | IC50 (a-431) [µM] | SMILES
7 | 26.7 |  | CSCC[C@@H]1NC(=O)[C@H](Cc2c[nH]c3ccccc23)NC(=O)[C@@H](NC(=O)[C@H](CCSC)NC(=O)[C@H](Cc2ccc(OS(=O)(=O)O)cc2)NC(=O)[C@@H](N)CC(=O)O)CNC(=O)CCNC(=O)[C@H](Cc2ccccc2)NC(=O)[C@H](CC(=O)O)NC1=O (H-D[sY]M[Dap]WMDF[βAla]; lactam 4-C)
8 | 7.46 |  | CSCC[C@@H]1NC(=O)[C@H](Cc2c[nH]c3ccccc23)NC(=O)[C@@H](NC(=O)[C@H](CCSC)NC(=O)[C@H](Cc2ccc(OS(=O)(=O)O)cc2)NC(=O)[C@@H](N)CC(=O)O)CNC(=O)CNC(=O)[C@H](CNCc2ccccc2)NC(=O)[C@H](CC(=O)O)NC1=O (H-D[sY]M[Dap]WMD[X2]G; lactam 4-C)
9 | 6.94 |  | CSCC[C@@H]1NC(=O)[C@H](Cc2c[nH]c3ccccc23)NC(=O)[C@@H](NC(=O)[C@H](CCSC)NC(=O)[C@H](Cc2ccc(OS(=O)(=O)O)cc2)NC(=O)[C@@H](N)CC(=O)O)CNC(=O)CNC(=O)[C@H](CCNCc2ccccc2)NC(=O)[C@H](CC(=O)O)NC1=O (H-D[sY]M[Dap]WMD[X3]G; lactam 4-C)

— ChEMBL document CHEMBL1149620, “Synthesis and biological evaluation of cyclic and branched peptide analogues as ligands for cholecystokinin type 1 receptor” (Bioorg Med Chem, 2007)
